The term Hill slope denotes a measure of the steepness of the concentration-response curve.

One test has as its target T1, human 5-HT3AB receptors (Homo sapiens, UniProt O95264+P46098).
T1 construct: expressed in transfected cells; host or cells: Xenopus laevis oocytes (cRNA from pGEMHE)
T1 sequence (P46098 24-478): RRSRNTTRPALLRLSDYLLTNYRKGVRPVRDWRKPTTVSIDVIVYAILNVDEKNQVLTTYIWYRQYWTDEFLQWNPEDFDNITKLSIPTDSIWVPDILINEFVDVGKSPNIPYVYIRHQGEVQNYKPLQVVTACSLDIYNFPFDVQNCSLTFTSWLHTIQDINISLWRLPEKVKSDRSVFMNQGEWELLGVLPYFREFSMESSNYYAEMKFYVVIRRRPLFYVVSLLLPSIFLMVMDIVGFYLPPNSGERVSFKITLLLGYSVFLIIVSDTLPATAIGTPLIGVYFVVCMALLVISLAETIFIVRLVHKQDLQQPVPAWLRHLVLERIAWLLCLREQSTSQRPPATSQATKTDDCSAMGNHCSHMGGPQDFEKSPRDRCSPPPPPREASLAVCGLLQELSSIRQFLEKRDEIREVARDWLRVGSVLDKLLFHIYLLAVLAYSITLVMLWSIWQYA
T1 sequence (O95264 22-441): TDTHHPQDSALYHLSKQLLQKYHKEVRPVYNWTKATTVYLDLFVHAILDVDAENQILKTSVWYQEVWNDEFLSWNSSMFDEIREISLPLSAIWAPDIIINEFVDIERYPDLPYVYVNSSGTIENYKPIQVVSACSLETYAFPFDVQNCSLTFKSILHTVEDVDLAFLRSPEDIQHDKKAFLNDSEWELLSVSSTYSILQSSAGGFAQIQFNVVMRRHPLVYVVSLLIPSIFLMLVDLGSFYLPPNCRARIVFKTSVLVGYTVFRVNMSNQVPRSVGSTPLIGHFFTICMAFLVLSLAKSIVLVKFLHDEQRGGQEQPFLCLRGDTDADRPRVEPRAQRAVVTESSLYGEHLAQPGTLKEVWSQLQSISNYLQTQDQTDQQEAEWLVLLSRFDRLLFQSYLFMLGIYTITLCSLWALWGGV
Briefly: Two-electrode voltage clamp of 5-HT-induced currents in Xenopus oocytes. It counts as cell-based. The settings on record: for IC50 at heteromers (5-HT3AB) relative to 5-HT3A: 5-HT3AB versus 5-HT3A; for Hill slope: concentration-inhibition curve, 28 μM 5-HT; for IC50: oocytes. The procedure:
Stage V and VI oocytes were injected with 50 nl of ∼300 ng μl^−1 cRNA, and currents were recorded 1–4 days post-injection. A ratio of 1:3 (A:B) was used for the expression of heteromeric 5-HT3 receptors.
Xenopus laevis oocyte positive females were purchased from NASCO (Fort Atkinson, Wisconsin, USA) and maintained according to standard methods.
Currents were filtered at a frequency of 1 kHz. Micro-electrodes were fabricated from borosilicate glass (GC120TF-10, Harvard Apparatus, Edenbridge, Kent, UK) using a two stage horizontal pull (P-87, Sutter Instrument Company, California, USA) and filled with 3 M KCl. […] Oocytes were perfused with saline at a rate of 15 ml min^−1. Drug application was via a simple gravity fed system calibrated to run at the same rate. Extracellular saline contained (mM), 96 NaCl, 2 KCl, 1 MgCl2 and 5 mM HEPES; adjusted to pH 7.4 with NaOH.
Analysis and curve fitting was performed using Prism V3.02 (GraphPad Software, San Diego, California, USA, www.graphpad.com). Concentration-response data for each oocyte was normalised to the maximum current for that oocyte. For inhibition curves, antagonists were routinely co-applied in the presence of agonist. For PXN, oocytes were also pre-treated with the compound for 20 s. A 2 min wash was used between drug applications. The mean and S.E.M. for a series of oocytes was plotted against agonist or antagonist concentration and iteratively fitted (GraphPad Prism v3.02) to the following Hill equation:(1) IA=Imin+Imax−Imin/1+10^nH(logA50−logA) where A is the concentration of ligand present; IA is the current in the presence of ligand concentration A; Imin is the current when A = 0; Imax is the current when A = ∞ , A50 is the concentration of A which evokes a current equal to (Imax + Imin)/2; and nH is the Hill coefficient. Results are presented as mean ± S.E.M.. Statistical analysis was performed using ANOVA in conjunction with a Dunnett’s post-hoc test.
A general note: Two-electrode voltage clamp holds a large cell at a set potential and records current.

Another test has as its target glycine α1 receptors. Further details: method as in Yang et al., 2007. The settings on record: ref Yang et al., 2007; cited from earlier work.
A further test deals with glycine α1β receptors. Also noted: method as in Yang et al., 2007. As to conditions: ref Yang et al., 2007; cited from earlier work.
In a further test the test system is GABAA receptor. Also noted: method as in earlier work. As to conditions: more potent than PTN; ref Chen et al., 2006; Curtis and Johnston, 1974; Yang et al., 2007; cited from earlier work.
A further test relates to glycine α2 receptors. Also noted: method as in earlier work. The settings on record: more potent than PTN; ref Chen et al., 2006; Curtis and Johnston, 1974; Yang et al., 2007; cited from earlier work.
Setting [1] is: IC50, inhibition of 5-HT EC50 response (28 μM 5-HT).
[2] abbreviates: pIC50, inhibition of 5-HT EC50 response (28 μM 5-HT).

With ginkgolide B [GB], at human 5-HT3AB receptors, the “IC50 at heteromers (5-HT3AB) relative to 5-HT3A” value is given as roughly 6 fold and the Hill slope was found to be 0.52 ± 0.14.

For `CC(C)(C)[C@]1(O)CC2OC(=O)CC23C(=O)OC2OC(=O)[C@H](O)C231` (some centres unmarked) [BB, bilobalide], at human 5-HT3AB receptors, the “IC50 at heteromers (5-HT3AB) relative to 5-HT3A” value is roughly 6 fold and the Hill slope was 0.75 ± 0.13. Besides, the IC50 against human 5-HT3AB receptors (setting [1]) came out at 3.2 mM. The same compound showed an IC50 at human 5-HT3AB receptors (setting [2]) of 3.16 mM.

For the compound `C=C(C)[C@@H]1[C@H]2OC(=O)[C@@H]1[C@]1(O)C[C@H]3O[C@]34C(=O)O[C@H]2[C@]14C` [PXN, picrotoxinin], the “IC50 at heteromers (5-HT3AB) relative to 5-HT3A” value against human 5-HT3AB receptors was roughly 6 fold. Besides, the IC50 is 0.062 mM at human 5-HT3AB receptors (setting [1]), 0.0631 mM on human 5-HT3AB receptors (setting [2]), roughly 5 µM at glycine α1 receptors and roughly 30 µM at glycine α1β receptors. On human 5-HT3AB receptors, this compound had a Hill slope of 0.68 ± 0.10. Besides, the “potency relative to PTN” value in the test on GABAA receptor is given as roughly 50 fold; with glycine α2 receptors it was roughly 30 fold.

Source of the values: paper PMC3070799 (Neuropharmacology, 2011).
